Test results: EP4603105A1, “PHARMACEUTICAL COMPOSITION CONTAINING CYCLIC COMPOUND HAVING SELECTIVE KRAS INHIBITORY EFFECT AGAINST HRAS AND NRAS” (CHUGAI SEIYAKU KABUSHIKI KAISHA, priority 2022, dated 2024)
Where two headings read alike, the source gives them in different places.

What was measured:
[1] = target: GDP-bound NRAS wild-type protein (Homo sapiens, UniProt P01111); assay: Binding to NRAS by surface plasmon resonance (SPR), KD and KD ratio to KRAS
Procedure, shortened: (§1)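 Running buffer contained 10 µM GDP and 10 mM MgCl2 to keep RAS in the GDP state, with 4% DMSO at pH 7.4. Compounds were flowed at 100 µL/min in 75 s steps of rising concentration over captured biotin-Avi RAS at 30°C. Sensorgrams were fitted 1:1 for KD.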

[2] = test system: human lung cancer strain NCI-H441; assay: NCI-H441 cell proliferation inhibitory activity (CellTiter-Glo, 4 days); type: cell-based; details: read-out: NCl-H441 IC50
Procedure, shortened: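 Step one: dispense the test compound in serial DMSO dilutions. Step three: add the reagent and measure […].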

[3] = target: HRAS wild-type protein (Homo sapiens, UniProt P01112); assay: Binding to HRAS by surface plasmon resonance (SPR), KD and KD ratio to KRAS
Chain of HRAS wild-type protein (P01112 whole entry): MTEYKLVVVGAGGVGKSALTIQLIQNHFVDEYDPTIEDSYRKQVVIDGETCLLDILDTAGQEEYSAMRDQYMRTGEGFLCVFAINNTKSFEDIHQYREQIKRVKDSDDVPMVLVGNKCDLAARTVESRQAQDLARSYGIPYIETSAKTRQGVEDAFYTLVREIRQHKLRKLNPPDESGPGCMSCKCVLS
Procedure, shortened: as §1

[4] = target: GDP-bound KRAS wild-type protein (Homo sapiens, UniProt P01116); assay: Binding to KRAS by surface plasmon resonance (SPR), dissociation constant KD
Chain of GDP-bound KRAS wild-type protein (P01116 1-188 isoform P01116-2): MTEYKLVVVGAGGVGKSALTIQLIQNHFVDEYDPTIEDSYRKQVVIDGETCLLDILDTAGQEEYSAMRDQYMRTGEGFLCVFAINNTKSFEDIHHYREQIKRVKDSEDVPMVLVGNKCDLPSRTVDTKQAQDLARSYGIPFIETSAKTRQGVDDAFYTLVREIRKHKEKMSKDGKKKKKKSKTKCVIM
Procedure, shortened: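 Captured GDP-RAS (~100–300 RU) was exposed to increasing compound concentrations, 75 s per step, in running buffer with 10 µM GDP, 10 mM MgCl2 and 4% DMSO at pH 7.4.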

[5] = ratio of KD for GDP-bound NRAS wild-type protein to KD for KRAS
[6] = ratio of KD for HRAS wild-type protein to KD for KRAS
[7] = ratio of KD with respect to GDP-bound NRAS wild-type protein to KD with respect to KRAS
[8] = 50% proliferation inhibitory concentration, four days
[9] = ratio of KD with respect to HRAS wild-type protein to KD with respect to KRAS
[10] = Single Cycle Kinetics, 1:1 binding model

Chain of GDP-bound NRAS wild-type protein (P01111 whole entry): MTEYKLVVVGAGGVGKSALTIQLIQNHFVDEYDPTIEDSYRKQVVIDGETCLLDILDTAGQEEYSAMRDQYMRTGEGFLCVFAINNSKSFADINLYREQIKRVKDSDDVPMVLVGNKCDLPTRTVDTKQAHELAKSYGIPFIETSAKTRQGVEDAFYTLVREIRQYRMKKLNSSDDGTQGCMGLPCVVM

For `CCCC[C@H]1C(=O)N[C@@H]([C@@H](C)CC)C(=O)N(C2CC2)CC(=O)N(C)[C@H]2C/C=C\CCN(C2=O)[C@@H](Cc2ccc(C)cc2)C(=O)N(C)CC(=O)N[C@@H](CCc2ccc(C(F)(F)F)c(OC)c2)C(=O)N2C[C@H](OCC)C[C@H]2C(=O)OC2(CCC2)C(=O)N(C)[C@@H](C2CCCC2)C(=O)N(C)[C@H](C(=O)N(C)C)CC(=O)N1C` [PP3384], the “NRAS /KRAS” value [1, 5] was “A (a compound having 10 or more and less than 20 is denoted as A)”, the IC50 ([2]; NCI-H441 cells, 4 days) was 18.2 nM and the “HRAS /KRAS” value [3, 6] was “B (a compound having 3 or more and less than 10 is denoted as B)”. It also gave a Kd ([4]; Single Cycle Kinetics) of 1.2 nM.

`CCC[C@H]1C(=O)N[C@@H]([C@@H](C)CC)C(=O)N2CCC[C@H]2C(=O)N(C)[C@H]2C/C=C\CCN(C2=O)[C@@H](Cc2ccc(C)cc2)C(=O)N(C)CC(=O)N[C@@H](CCc2ccc(C(F)(F)F)c(OC)c2)C(=O)N2CC[C@H](OC)[C@H]2C(=O)N(C)C2(CCC2)C(=O)N(C)[C@@H](C2CCCC2)C(=O)N(C)[C@H](C(=O)N(C)C)CC(=O)N1C` [PP3247] was tested, and the “NRAS /KRAS” value [1, 5] was “A (a compound having 10 or more and less than 20 is denoted as A)”, the IC50 ([2]; NCI-H441 cells, 4 days) was 5.3 nM and the “HRAS /KRAS” value [3, 6] was “B (a compound having 3 or more and less than 10 is denoted as B)”. For the same compound, the Kd ([4]; Single Cycle Kinetics) was 0.22 nM.

For `CCC[C@H]1C(=O)N[C@@H](C2CCCC2)C(=O)N(C)CC(=O)N(C)[C@H]2C/C=C\CCN(C2=O)[C@@H](Cc2ccc(C)cc2)C(=O)N(C)CC(=O)N[C@@H](CCc2ccc(C(F)(F)F)c(OC)c2)C(=O)N2CC3(CC3)C[C@H]2C(=O)N(C)C2(CCC2)C(=O)N(C)[C@@H]([C@@H](C)CC)C(=O)N(C)[C@H](C(=O)N(C)C)CC(=O)N1C` [PP3318], the “NRAS /KRAS” value [1, 5] was “A (a compound having 10 or more and less than 20 is denoted as A)”, the IC50 ([2]; NCI-H441 cells, 4 days) was 6.5 nM and the “HRAS /KRAS” value [3, 6] was “A (a compound having 10 or more and less than 20 is denoted as A)”. For the same compound, the Kd ([4]; Single Cycle Kinetics) was 0.26 nM.

In the case of `CCO[C@@H]1C[C@H]2C(=O)NC3(CCC3)C(=O)N(C)[C@@H](C3CCCC3)C(=O)N(C)[C@@H](C(=O)N(C)C)CC(=O)N(C)[C@@H](CC)C(=O)N[C@@H]([C@@H](C)CC)C(=O)N(C)CC(=O)N(C)[C@H]3C/C=C\CCN(C3=O)[C@@H](Cc3ccc(C(F)(F)F)cc3)C(=O)N(C)CC(=O)N[C@@H](CCc3cc(F)c(C(F)(F)F)c(F)c3)C(=O)N2C1` [PP1234], the “NRAS /KRAS” value [1, 7] is reported as “B (a compound having 3 or more and less than 10 is denoted as B)”, the IC50 [2, 8] is reported as 398 nM and the “HRAS /KRAS” value [3, 9] is reported as “C (A compound having a KD ratio of 0.1 or more and less than 3 is denoted as C)”. The Kd [4, 10] was 3.8 nM.

For `CCC[C@H]1C(=O)N[C@@H]([C@@H](C)CC)C(=O)N(C)CC(=O)N(C)[C@H]2C/C=C\CCN(C2=O)[C@@H](Cc2ccc(C)cc2)C(=O)N(C)CC(=O)N[C@@H](CCc2ccc(C(F)(F)F)c(OC)c2)C(=O)N2CC3(CC3)C[C@H]2C(=O)N(C)C2(CCC2)C(=O)N(C)[C@@H](C(CC)CC)C(=O)N(C)[C@H](C(=O)N(C)C)CC(=O)N1C` [PP3292], the “NRAS /KRAS” value [1, 5] was “A (a compound having 10 or more and less than 20 is denoted as A)”, the IC50 ([2]; NCI-H441 cells, 4 days) was 5.4 nM and the “HRAS /KRAS” value [3, 6] was “A (a compound having 10 or more and less than 20 is denoted as A)”. For the same compound, the Kd ([4]; Single Cycle Kinetics) was 0.13 nM.

For `CCC[C@H]1C(=O)N[C@@H]([C@@H](C)CC)C(=O)N2CCC[C@H]2C(=O)N(C)[C@H]2C/C=C\CCN(C2=O)[C@@H](Cc2ccc(C(F)(F)F)cc2)C(=O)N(C)CC(=O)N[C@@H](CCc2ccc(C(F)(F)F)c(OC)c2)C(=O)N2C[C@@H](C)C[C@H]2C(=O)N(C)C2(CCC2)C(=O)N(C)[C@@H](C2CCCC2)C(=O)N(C)[C@H](C(=O)N(C)C)CC(=O)N1C` [PP2362], the “NRAS /KRAS” value [1, 5] was “A (a compound having 10 or more and less than 20 is denoted as A)”, the IC50 ([2]; NCI-H441 cells, 4 days) was 4.8 nM and the “HRAS /KRAS” value [3, 6] was “A (a compound having 10 or more and less than 20 is denoted as A)”. For the same compound, the Kd ([4]; 1:1 binding model) was 0.076 nM.

In the case of `C#CC[C@H]1C(=O)N[C@@H]([C@@H](C)CC)C(=O)N(C2CC2)CC(=O)N(C)[C@H]2C/C=C\CCN(C2=O)[C@@H](Cc2ccc(C)cc2)C(=O)N(C)CC(=O)N[C@@H](CCc2ccc(C(F)(F)F)c(Cl)c2)C(=O)N2C[C@H](OCC)C[C@H]2C(=O)N(C)C2(CCC2)C(=O)N(C)[C@@H](C2CCCC2)C(=O)N(C)[C@H](C(=O)N(C)C)CC(=O)N1C` [PP3251], the “NRAS /KRAS” value [1, 5] is reported as “B (a compound having 3 or more and less than 10 is denoted as B)”, the IC50 ([2]; NCI-H441 cells, 4 days) is reported as 4.1 nM and the “HRAS /KRAS” value [3, 6] is reported as “B (a compound having 3 or more and less than 10 is denoted as B)”. It also gave a Kd ([4]; Single Cycle Kinetics) of 0.12 nM.

In the case of `CCC[C@H]1C(=O)N[C@@H](CC(C)C)C(=O)N(CC)CC(=O)N(C)[C@H]2C/C=C\CCN(C2=O)[C@@H](Cc2ccc(C)cc2)C(=O)N(C)CC(=O)N[C@@H](CCc2cc(F)c(C(F)(F)F)c(F)c2)C(=O)N2C[C@H](OCC)C[C@H]2C(=O)NC2(CC(C)(C)C2)C(=O)N(C)[C@@H](C2CCCC2)C(=O)N(C)[C@H](C(=O)N(C)C)CC(=O)N1C` [PP2516], the “NRAS /KRAS” value [1, 5] is reported as “A (a compound having 10 or more and less than 20 is denoted as A)”, the IC50 ([2]; NCI-H441 cells, 4 days) is reported as 124 nM and the “HRAS /KRAS” value [3, 6] is reported as “B (a compound having 3 or more and less than 10 is denoted as B)”. For the same compound, the Kd ([4]; 1:1 binding model) was 2.9 nM.

With `CC[C@H](C)[C@@H]1NC(=O)[C@H](CC)N(C)C(=O)C[C@@H](C(=O)N2CCOCC2)N(C)C(=O)[C@H](C2CCCC2)N(C)C(=O)C2(CCC2)NC(=O)[C@@H]2CCCN2C(=O)[C@H](CCc2cc(F)c(C(F)(F)F)c(F)c2)NC(=O)CN(C)C(=O)[C@H](Cc2ccc(C(F)(F)F)cc2)N2C[C@H](C)[C@H](C)C[C@@H](C2=O)N(C)C(=O)CN(C)C1=O` [PP1366] the “NRAS /KRAS” value [1, 7] was “A (a compound having 10 or more and less than 20 is denoted as A)”, the IC50 [2, 8] was 14 nM and the “HRAS /KRAS” value [3, 9] was “B (a compound having 3 or more and less than 10 is denoted as B)”. For the same compound, the Kd [4, 10] was 0.11 nM.

With `CCO[C@@H]1C[C@H]2C(=O)NC3(CCC3)C(=O)N(C)[C@@H](C3CCCC3)C(=O)N(C)[C@H](C)CC(=O)N(C)[C@@H](CC(C)C)C(=O)N[C@@H]([C@@H](C)CC)C(=O)N(C)CC(=O)N(C)[C@H]3C/C=C\CCN(C3=O)[C@@H](Cc3ccc(C)cc3)C(=O)N(C)CC(=O)N[C@@H](CCc3cc(F)c(C(F)(F)F)c(F)c3)C(=O)N2C1` [PP1417] the “NRAS /KRAS” value [1, 7] was “B (a compound having 3 or more and less than 10 is denoted as B)”, the IC50 [2, 8] was 18.4 nM and the “HRAS /KRAS” value [3, 9] was “B (a compound having 3 or more and less than 10 is denoted as B)”. It also gave a Kd [4, 10] of 0.26 nM.

For `CCOC[C@H]1C(=O)N[C@@H]([C@@H](C)CC)C(=O)N(C)CC(=O)N(C)[C@H]2C/C=C\CCN(C2=O)[C@@H](Cc2ccc(C)cc2)C(=O)N(C)CC(=O)N[C@@H](CCc2ccc(C(F)(F)F)c(Cl)c2)C(=O)N2C[C@@H](C)C[C@H]2C(=O)NC2(CC(C)(C)C2)C(=O)N(C)[C@@H](C2CCCC2)C(=O)N(C)[C@H](C(=O)N(C)C)CC(=O)N1C` [PP2394], the “NRAS /KRAS” value [1, 5] was “A (a compound having 10 or more and less than 20 is denoted as A)”, the IC50 ([2]; NCI-H441 cells, 4 days) was 8.3 nM and the “HRAS /KRAS” value [3, 6] was “B (a compound having 3 or more and less than 10 is denoted as B)”. It also gave a Kd ([4]; 1:1 binding model) of 0.12 nM.

With `CCCO[C@@H]1C[C@H]2C(=O)NC3(CC(C)(C)C3)C(=O)N(C)[C@@H](C3CCCC3)C(=O)N(C)[C@H](C(=O)N(C)CC)CC(=O)N(C)[C@@H](COCC)C(=O)N[C@@H]([C@@H](C)CC)C(=O)N3C[C@@H](C)C[C@H]3C(=O)N(C)[C@H]3C/C=C\CCN(C3=O)[C@@H](Cc3ccc(C(F)(F)F)cc3)C(=O)N(C)CC(=O)N[C@@H](CCc3ccc(C(F)(F)F)c(Cl)c3)C(=O)N2C1` [PP3407] the “NRAS /KRAS” value [1, 5] was “A (a compound having 10 or more and less than 20 is denoted as A)”, the IC50 ([2]; NCI-H441 cells, 4 days) was 73.8 nM and the “HRAS /KRAS” value [3, 6] was “A (a compound having 10 or more and less than 20 is denoted as A)”. The Kd ([4]; Single Cycle Kinetics) was 3.8 nM.
